The source of these data is patent US20230279072A1, “REGULATORY T CELL EPITOPES” (EpiVax Inc., priority 2020, published 2023).

“Also recorded” adds a separate entry of the source.

For data set [1], the system named is CD4+ T cells in PBMCs from healthy donors. Briefly: Tetanus Toxoid Bystander Suppression Assay (TTBSA). The class given is cell-based, human. Conditions: for inhibition of the CD4+ T memory response / T effector proliferation in the TTBSA: PBMC from three HLA-diverse donors.
Data set [2] relates to HLA-DRB1*0101, *0301, *0401, *0701, *1101, *1301 and *1501 alleles. Put plainly: In vitro HLA DRB1 binding assay, panel of seven alleles. Also on record: species or system human. Particulars: for breadth of binding to HLA DRB1 alleles: seven alleles. As for the experimental part: The six FV peptides were tested for in vitro binding to HLA-DRB1*0101, *0301, *0401, *0701, *1101, *1301 and *1501 alleles.

The test system of data set [3] is panel of five common Class II HLA alleles: HLA-DRB1*0101, HLA-DRB1*0301, HLA-DRB1*0701, HLA-DRB1*1101, and HLA-DRB1*1501. Briefly: Soluble HLA competition binding assay, panel of five alleles. Also on record: species or system human. As for the experimental part:
HLA Binding Assay. Binding activity was analyzed atEpiVax (Providence, R.I.). The binding assay used (Steere A C et al., (2006), J Exp Med, 2003(4):961-71) yielded an indirect measure of peptide-MHC affinity. Soluble HLA molecules were loaded onto a 96-well plate with the unlabeled experimental Tregitopes and labeled control peptide. Once the binding mixture reached steady equilibrium (at 24 hours), the HLA-Tregitope complexes were captured on an ELISA plate coated with anti-human DR antibody and detected with a Europium-linked probe for the label (PerkinElmer, Waltham, Mass.). Time-resolved fluorescence measuring bound labeled control peptide is assessed by a SpectraMax® M5 unit (Spectramax, Radnor, Pa.). Binding of experimental Tregitopes was expressed as the percent inhibition of the labeled control peptide (experimental fluorescence/control fluorescence multiplied by 100). […]
CD4+ effector memory T cells contained within PBMC cell populations can be induced to proliferate in response to stimulation with known T cell epitopes. […] Binding of experimental Tregitopes is expressed as the percent inhibition of the labeled control peptide (experimental fluorescence/control fluorescence multiplied by 100). […]

For data set [4], the system named is CD4+ effector memory T cells. Briefly: Suppression of Tetanus Toxoid stimulated CD4+ effector T cells in PBMC. The class given is cell-based, human. Set-up: CD4+ T cell activation reduced by: dose or concentration left out as unconfirmed. As for the experimental part:
Previously harvested and frozen PBMC were thawed and suspended in conditioned chRPMI (3.3×10^6 cells/mL) by conventional means. Cells were stained with CFSE (Cat #: 65-0850-84, Affymetrix, Santa Clara, Calif.) and plated at 300,000 cells per well. Plates were incubated overnight (37° C. in 5% CO2). […] Previous titration experiments performed at EpiVax (EpiVax, Providence, R.I.) have established that stimulation with 0.5 μg/ml Tetanus Toxoid (TT) (Astarte Biologics, Bothell, Wash.) elicits a measurable CD4+ effector memory T cells response in PBMC drawn from healthy control donors (Rhode Island Blood Center, Providence, R.I.). Tetanus Toxoid stock (100 μg/mL) (Astarte Biologics, Bothell, Wash.) was diluted in conditioned chRPMI yielding a working concentration of 1 ug/mL. […] All plates were then incubated for six additional days. On assay day five, 100 μL of supernatant was removed from each well and replaced with freshly conditioned chRPMI.
On assay day seven, cells were removed from incubation. Cells were labeled for live/dead discrimination, for surface markers CD127, CCR7, CD4, CD45RA, and CD25 and for intracellular FoxP3. Stained cells were further prepared for FACS analysis by conventional means. Cells were first gated to eliminate aggregates and dead cells. Live cells were gated for CD4 T cells and all subsequent analysis was done on this population. The activated Teffector population was identified as the CD4+/CD25-high/FoxP3-intermediate (CD4+/CD25^1/FoxP3int) (FIG. 8A).
Proliferation of CD4+/CD25-high (CD4^+/CD25^hi) T cells was estimated from the dilution of the CFSE stain (Cat #: 65-0850-84, Affymetrix, Santa Clara, Calif.) and % proliferation determined by the CFSE-low (CFSEL^lo) population (FIG. 8B).

Another data set concerns PBMCs. The class given is cell-based, human. As for the experimental part: For the T reg assays, PBMCs were thawed according standard procedure, labeled with carboxyfluorescein succinimidyl ester (CFSE), and rested overnight in 96 well culture plate prior to use in in vitro assays. To evaluate the dose response of FV621 on the viability, cells were incubated with FV621 for 2, 3, 5 and 7 days in culture and live cells evaluated by flow cytometry using a live-dead viability dye and by counting in a cellometer (Nexcelom) using trypan blue exclusion. […]
To rule out the possibility that the effect of FV621 was related to toxic effects of the peptide, which might simulate a suppressive effect in vitro, we evaluated the viability of cells in culture with FV621 using two different methods. Cells were cultured in the presence of FV621 in a 96 well plate for 2, 3, 5 and 7 days after which cells were collected and stained with live-dead viability dye and analyzed by flow cytometry (data not shown) and by trypan blue exclusion and counting with a cellometer (Nexcelom). The absolute number of live cells that was counted at days 2, 3, 5 and 7 after stimulation with different doses of FV621 Tregitope was similar by flow cytometry.

In the case of `CC[C@H](C)[C@H](NC(=O)[C@H](CC(N)=O)NC(=O)[C@H](CO)NC(=O)[C@H](CCC(=O)O)NC(C)=O)C(=O)N[C@@H](CCSC)C(=O)N[C@@H](CO)C(=O)N[C@H](C(=O)N[C@H](C(=O)N[C@@H](CC(N)=O)C(=O)NCC(=O)N[C@@H](Cc1ccc(O)cc1)C(=O)N[C@H](C(=O)N1CCC[C@H]1C(=O)N[C@@H](CCC(=O)O)C(=O)N[C@@H](CO)C(N)=O)C(C)C)[C@@H](C)CC)[C@@H](C)O` [SEQ ID NO: 5], the “inhibition of the CD4+ T memory response / T effector proliferation in the TTBSA” value in data set [1] is on record as “did not inhibit”. Moreover, the “breadth of binding to HLA DRB1 alleles” value in data set [2] (listed as FV582) is “somewhat more restricted in the breadth of binding; also recorded: more limited binding to HLA DR”.

Turning to `CC(=O)N[C@@H](Cc1ccccc1)C(=O)N[C@@H](C)C(=O)N[C@H](C(=O)N[C@@H](Cc1ccccc1)C(=O)N[C@@H](CC(=O)O)C(=O)N[C@@H](CCC(=O)O)C(=O)N[C@@H](CC(N)=O)C(=O)N[C@@H](CCCCN)C(=O)N[C@@H](CO)C(=O)N[C@@H](Cc1c[nH]c2ccccc12)C(=O)N[C@@H](Cc1ccc(O)cc1)C(=O)N[C@@H](CC(C)C)C(=O)N[C@@H](CCC(=O)O)C(=O)N[C@@H](CC(=O)O)C(=O)N[C@@H](CC(N)=O)C(N)=O)C(C)C` [SEQ ID NO: 4], in data set [1], the “inhibition of the CD4+ T memory response / T effector proliferation in the TTBSA” value is “did not inhibit”. Besides, the “breadth of binding to HLA DRB1 alleles” value in data set [2] (listed as FV548) is on record as “somewhat more restricted in the breadth of binding; also recorded: more limited binding to HLA DR”. In addition, the HLA binding profile result in data set [3] is “highly-restricted HLA binding profiles”.

In the case of “G628H: FV621 with point mutation at TCR facing position G628H (glycine changed to histidine) (ILTIHFTHHSFIYGK)”, the “suppressive capacity on TT-induced memory CD4 T cell proliferation relative to FV621” value in data set [1] (point-mutated FV621 peptides, data not shown) is on record as “significantly diminished suppressive capacity”. Besides, the “binding affinity to HLA DR alleles (in words)” value in data set [2] (across the alleles tested) was “identical to FV621”.

As for “IHSIHFSGHVFTVRK (listed as Homo sapiens) [SEQ ID NO: 2]”, the “proliferation of CD4+ T cells and activated T effector T cells” value in data set [4] (5, 10, 15, and 20 ug/ml, two donors) is “suppressed proliferation of CD4+ T cells and activated T effector T cells in a dose dependent manner”. The “CD4+ T cell activation reduced by” value is on record as 70% in data set [4] (Donor 096, with TT) and 50% in data set [4] (Donor 120, with TT).

Regarding `CC[C@H](C)[C@H](NC(=O)[C@H](CC(C)C)NC(=O)[C@H](CC(C)C)NC(=O)[C@@H]1CCCN1C(=O)CNC(=O)[C@@H](NC(=O)[C@H](CC(C)C)NC(=O)CNC(=O)[C@H](CO)NC(=O)[C@H](Cc1c[nH]cn1)NC(=O)[C@@H](NC(=O)[C@H](CC(=O)O)NC(=O)[C@H](CCCCN)NC(=O)[C@H](CCC(=O)O)NC(C)=O)[C@@H](C)CC)[C@@H](C)CC)C(N)=O` [SEQ ID NO: 6], the “inhibition of the CD4+ T memory response / T effector proliferation in the TTBSA” value in data set [1] was “did not inhibit”. The “breadth of binding to HLA DRB1 alleles” value in data set [2] (listed as FV1737) was “somewhat more restricted in the breadth of binding; also recorded: more limited binding to HLA DR”. Further, in data set [3], the HLA binding profile entry is “highly-restricted HLA binding profiles”.

In the case of `CC[C@H](C)[C@H](NC(=O)[C@H](C)NC(=O)[C@H](Cc1c[nH]cn1)NC(=O)[C@H](Cc1ccccc1)NC(=O)[C@H](CCC(=O)O)NC(=O)[C@H](Cc1c[nH]cn1)NC(=O)[C@H](CO)NC(C)=O)C(=O)N[C@@H](CC(N)=O)C(=O)NCC(=O)N[C@@H](CCSC)C(=O)N[C@H](C(=O)N[C@@H](Cc1ccc(O)cc1)C(=O)N[C@@H](CO)C(=O)N[C@@H](CC(C)C)C(=O)N1CCC[C@H]1C(N)=O)[C@@H](C)CC` [SEQ ID NO: 7], the “inhibition of the CD4+ T memory response / T effector proliferation in the TTBSA” value in data set [1] is reported as “did not inhibit”. The “breadth of binding to HLA DRB1 alleles” value in data set [2] was “bind to multiple HLA DRB1 alleles”.

For `CC[C@H](C)[C@H](NC(C)=O)C(=O)N[C@@H](CC(C)C)C(=O)N[C@H](C(=O)N[C@H](C(=O)N[C@@H](Cc1c[nH]cn1)C(=O)N[C@@H](Cc1ccccc1)C(=O)N[C@H](C(=O)NCC(=O)N[C@@H](Cc1c[nH]cn1)C(=O)N[C@@H](CO)C(=O)N[C@@H](Cc1ccccc1)C(=O)N[C@H](C(=O)N[C@@H](Cc1ccc(O)cc1)C(=O)NCC(=O)N[C@@H](CCCCN)C(N)=O)[C@@H](C)CC)[C@@H](C)O)[C@@H](C)CC)[C@@H](C)O` [SEQ ID NO: 1], in the data set with PBMCs (days 2, 3, 5 and 7, different doses), the “absolute number of live cells by flow cytometry” value is listed as “similar”. In the data set with PBMCs (highest dose), the “decreased viability by trypan blue exclusion” value was 10-15%.
